In brackets after ≈: the same amount, converted by molar mass. Activity calls are given as the source filed them. The rule behind the calls is not given here.
How the values were obtained:
[1] = tested on: Mycobacterium tuberculosis; assay: Antimicrobial activity against 2 months old culture of Mycobacterium tuberculosis H37Ra assessed as colony forming unit at 100 ug/ml for 3 days at pH 5.5; assay type: functional
[2] = tested on: Mycobacterium tuberculosis; assay: Antimicrobial activity against 2 weeks old culture of Mycobacterium tuberculosis H37Ra assessed as colony forming unit at 100 ug/ml for 3 days at pH 5.5; assay type: functional
[3] = tested on: Mycobacterium tuberculosis; assay: Antimicrobial activity against Mycobacterium tuberculosis H37Rv; assay type: functional
[4] = tested on: Mycobacterium tuberculosis; assay: Antimicrobial activity against Mycobacterium tuberculosis H37Rv assessed as drug concentration required to kill 99% of the inoculum; assay type: functional
[5] = tested on: Mycobacterium tuberculosis; assay: Antimicrobial activity against 3 weeks old culture of Mycobacterium tuberculosis H37Rv assessed as 1:16 serum inhibitory titers treated with blood from 25 mg/kg, po dosed Swiss mouse collected after 1 hrs; assay type: functional, organism-based; parameters: dose 25 mg/kg
[6] = tested on: Mycobacterium tuberculosis; assay: Antimicrobial activity against 3 weeks old culture of Mycobacterium tuberculosis H37Ra assessed as colony forming unit in aerobic condition at 2 ug/ml for 3 hrs; assay type: functional
[7] = tested on: Mycobacterium tuberculosis; assay: Antimicrobial activity against 2 months old culture of Mycobacterium tuberculosis H37Ra assessed as colony forming unit at 10 ug/ml for 3 days at pH 5.5; assay type: functional
[8] = tested on: Mycobacterium tuberculosis; assay: Antimicrobial activity against 3 weeks old culture of Mycobacterium tuberculosis H37Ra assessed as colony forming unit in hypoxic condition at 2 ug/ml for 3 hrs; assay type: functional
[9] = tested on: Mycobacterium tuberculosis; assay: Antimicrobial activity against 2 months old culture of Mycobacterium tuberculosis H37Ra assessed as colony forming unit at 5 ug/ml for 3 days at pH 5.5; assay type: functional
[10] = tested on: Mycobacterium tuberculosis; assay: Antimicrobial activity against 3 weeks old culture of Mycobacterium tuberculosis H37Ra assessed as colony forming unit at 4.5 ug/ml for 3 days at pH 7; assay type: functional
[11] = tested on: Mycobacterium tuberculosis; assay: Antimicrobial activity against 3 weeks old culture of Mycobacterium tuberculosis H37Ra assessed as colony forming unit in aerobic condition at 4.5 ug/ml for 3 hrs; assay type: functional
[12] = tested on: Mycobacterium tuberculosis; assay: Antimicrobial activity against 3 weeks old culture of Mycobacterium tuberculosis H37Rv assessed as 1:2 serum inhibitory titers treated with blood from 100 mg/kg, po dosed Swiss mouse collected after 2 hrs; assay type: functional, organism-based; parameters: dose 100 mg/kg
[13] = tested on: Mycobacterium tuberculosis; assay: Antimicrobial activity against 3 weeks old culture of Mycobacterium tuberculosis H37Ra assessed as colony forming unit at 4.5 ug/ml for 3 days at pH 5.5; assay type: functional
[14] = tested on: Mycobacterium tuberculosis; assay: Antimicrobial activity against 2 months old culture of Mycobacterium tuberculosis H37Ra assessed as colony forming unit at 4.5 ug/ml for 3 days at pH 5.5; assay type: functional
[15] = tested on: Mycobacterium tuberculosis; assay: Antimicrobial activity against 3 weeks old culture of Mycobacterium tuberculosis H37Ra assessed as colony forming unit in hypoxic condition at 4.5 ug/ml for 3 hrs; assay type: functional
[16] = tested on: Mycobacterium tuberculosis; assay: Antimicrobial activity against 2 months old culture of Mycobacterium tuberculosis H37Ra assessed as colony forming unit at 4.5 ug/ml for 3 days at pH 7; assay type: functional
[17] = tested on: Mycobacterium tuberculosis; assay: Antimicrobial activity against Mycobacterium tuberculosis infected in human monocytes; assay type: functional
[18] = tested on: Mycobacterium tuberculosis; assay: Antimicrobial activity against 1 month old culture of Mycobacterium tuberculosis H37Ra assessed as colony forming unit at 10 ug/ml for 3 days at pH 5.5; assay type: functional
[19] = tested on: Mycobacterium tuberculosis; assay: Antimicrobial activity against 3 weeks old culture of Mycobacterium tuberculosis H37Rv assessed as 1:4 serum inhibitory titers treated with blood from 100 mg/kg, po dosed Swiss mouse collected after 2 hrs; assay type: functional, organism-based; parameters: dose 100 mg/kg
[20] = tested on: Mycobacterium tuberculosis; assay: Antimicrobial activity against 3 weeks old culture of Mycobacterium tuberculosis H37Ra assessed as colony forming unit at 3.3 ug/ml for 3 days at pH 7; assay type: functional
[21] = tested on: Mycobacterium tuberculosis; assay: Antimicrobial activity against 3 weeks old culture of Mycobacterium tuberculosis H37Ra assessed as colony forming unit in aerobic condition at 3.3 ug/ml for 3 hrs; assay type: functional
[22] = tested on: Mycobacterium tuberculosis; assay: Antimicrobial activity against 3 weeks old culture of Mycobacterium tuberculosis H37Ra assessed as colony forming unit at 3.3 ug/ml for 3 days at pH 5.5; assay type: functional
Escherichia coli = assay: Antimicrobial activity against Escherichia coli DH5alpha; assay type: functional
[23] = tested on: Mycobacterium tuberculosis; assay: Antimicrobial activity against 2 months old culture of Mycobacterium tuberculosis H37Ra assessed as colony forming unit at 3.3 ug/ml for 3 days at pH 5.5; assay type: functional
[24] = tested on: Mycobacterium tuberculosis; assay: Antimicrobial activity against 2 months old culture of Mycobacterium tuberculosis H37Ra assessed as colony forming unit at 3.3 ug/ml for 3 days at pH 7; assay type: functional
[25] = tested on: Mycobacterium tuberculosis; assay: Antimicrobial activity against 3 weeks old culture of Mycobacterium tuberculosis H37Ra assessed as colony forming unit in hypoxic condition at 3.3 ug/ml for 3 hrs; assay type: functional
[26] = tested on: Mycolicibacterium smegmatis; assay: Antimicrobial activity against Mycobacterium smegmatis mc26; assay type: functional
[27] = tested on: Mycobacterium tuberculosis; assay: Antimicrobial activity against 3 weeks old culture of Mycobacterium tuberculosis H37Ra assessed as colony forming unit in aerobic condition at 10.3 ug/ml for 3 hrs; assay type: functional
[28] = tested on: Mycobacterium tuberculosis; assay: Antimicrobial activity against 3 weeks old culture of Mycobacterium tuberculosis H37Ra assessed as colony forming unit in hypoxic condition at 10.3 ug/ml for 3 hrs; assay type: functional

SMILES: NC(=O)c1cnccn1 [PYRAZINAMIDE]
- log10CFU/ml [1]: 0.08
- log10CFU/ml [2]: 0.26

SMILES: NNC(=O)c1ccncc1 [ISONIAZID]
- MBC [3]: 0.12 µg/mL (≈ 0.875 µM)
- MIC [3]: 0.06 µg/mL (≈ 0.438 µM)
- Activity [4]: 0.25 µg/mL
- Activity [5]: Active

SMILES: CO[C@H]1/C=C/O[C@@]2(C)Oc3c(C)c(O)c4c(O)c(c(/C=N/N5CCN(C)CC5)c(O)c4c3C2=O)NC(=O)/C(C)=C\C=C\[C@H](C)[C@H](O)[C@@H](C)[C@@H](O)[C@@H](C)[C@H](OC(C)=O)[C@@H]1C [RIFAMPIN]
- log10CFU/ml [6]: 4.63
- log10CFU/ml [7]: 1.32
- log10CFU/ml [8]: 6.36

SMILES: CCN(CC)C(=S)SSC(=S)N(CC)CC [DISULFIRAM]
- MIC [3]: 8 µg/mL (≈ 27 µM)

SMILES: CCN(CC)C(=S)[S-].[Na+] [DITIOCARB SODIUM]
- log10CFU/ml [9]: 0.96
- MBC [3]: 8 µg/mL
- MIC [3]: 4 µg/mL
- log10CFU/ml [10]: 2.07
- log10CFU/ml [11]: 6.03
- Activity [12]: Active
- log10CFU/ml [13]: 1.28
- log10CFU/ml [14]: 3.18
- log10CFU/ml [15]: 7.22
- log10CFU/ml [16]: 1.73
- MIC [17]: 1 µg/mL
- log10CFU/ml [18]: 0.14
- Activity [19]: Active

SMILES: S=C(S)N1CCCC1 [PYRROLIDINE DITHIOCARBAMATE]
- log10CFU/ml [20]: 2.65
- log10CFU/ml [21]: 6.19
- log10CFU/ml [22]: 0.89
- log10CFU/ml [9]: 0.42
- MBC [3]: 0.5 µg/mL (≈ 3.4 µM)
- MIC [3]: 0.125 µg/mL (≈ 0.849 µM)
- MIC (Escherichia coli): 64 µg/mL (≈ 435 µM)
- Activity [4]: 0.5 µg/mL
- log10CFU/ml [23]: 0.13
- log10CFU/ml [24]: 0.94
- log10CFU/ml [25]: 7.1
- MIC [26]: 16 µg/mL (≈ 109 µM)
- log10CFU/ml [18]: 0.06

SMILES: C(=NC1CCCCC1)=NC1CCCCC1 [DICYCLOHEXYLCARBODIIMIDE]
- log10CFU/ml [27]: 7.43
- log10CFU/ml [28]: 7.37

— ChEMBL document CHEMBL1137667, “Pyrrolidine dithiocarbamate and diethyldithiocarbamate are active against growing and nongrowing persister Mycobacterium tuberculosis” (2007)
